Article PMC10998383, “Nitrophenylpiperazine derivatives as novel tyrosinase inhibitors: design, synthesis, and in silico evaluations” (BMC Chemistry, 2024)
Entries after “also recorded” stand apart in the source; their conditions may differ. Read-outs that look alike come from different tables or passages of the source.

Legend:
mushroom tyrosinase [1] = target: T1, mushroom tyrosinase (Agaricus bisporus, UniProt C7FF04); settings: cited from earlier work
mushroom tyrosinase [2] = target: T1, mushroom tyrosinase; assay: Mushroom tyrosinase inhibitory assay with L-dopa as substrate; assay type: biochemical; settings: for inhibition at 100 µM: read-out: % Inhibition at 100 μM;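 as to all read-outs here: enzyme activity followed as absorbance change at 475 nm in phosphate buffer pH 6.8, monitored continuously, IC50 derived from percent inhibition dose–response curves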
Description: The mushroom tyrosinase activity assays for the synthetic compounds were conducted using a modified procedure from a previous study. In summary, a 96-well microplate was utilized, and 160 μl of phosphate buffer (50 mM, pH 6.8), 10 μl of mushroom tyrosinase (500 U/ml, dissolved in PBS), and 10 μl of the test compound (dissolved in DMSO) were added to each well. Then, 20 μl of L-dopa (7 mM, dissolved in PBS) was added to initiate the enzymatic reaction. The change in absorbance at 475 nm was continuously monitored using a spectrophotometer. […] The IC50 value, representing the compound’s inhibitory potency, was determined from dose–response curves of percentage inhibition.

mushroom tyrosinase [3] = target: T1, mushroom tyrosinase; assay: Determination of the inhibition type (Lineweaver–Burk plot analysis)
B16F10 cells = system: B16F10 cells; parameters: method as in PMID 30856375; settings: cited from earlier work
[4] = L-dopa substrate, ± SD, read-out: IC50 ± SD

T1 sequence (C7FF04 1-392): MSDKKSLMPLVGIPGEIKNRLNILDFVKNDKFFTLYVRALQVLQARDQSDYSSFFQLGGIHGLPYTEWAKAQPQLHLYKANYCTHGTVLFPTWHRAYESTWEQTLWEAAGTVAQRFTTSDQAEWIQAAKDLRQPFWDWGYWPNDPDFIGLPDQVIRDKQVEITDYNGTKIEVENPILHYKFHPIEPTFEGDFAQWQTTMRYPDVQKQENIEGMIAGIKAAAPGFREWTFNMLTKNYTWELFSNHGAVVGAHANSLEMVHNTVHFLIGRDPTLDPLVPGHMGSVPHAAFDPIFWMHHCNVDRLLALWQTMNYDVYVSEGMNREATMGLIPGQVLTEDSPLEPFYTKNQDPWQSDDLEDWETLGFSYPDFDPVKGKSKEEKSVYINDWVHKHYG

| SMILES | inhibition at 100 µM (mushroom tyrosinase [2]; 100 μM, L-dopa substrate, ± SD) [%] | IC50 (mushroom tyrosinase [2]) [µM] | melting point [°C] | other results |
| --- | --- | --- | --- | --- |
| O=C(O)/C=C/c1ccc(O)c(O)c1 [caffeic acid] |  |  |  | Tyrosinase inhibitory potential (mushroom tyrosinase [1]): almost inactive |
| O=C(OCCN1CCN(c2ccc([N+](=O)[O-])cc2)CC1)c1ccc([N+](=O)[O-])o1 [Compound 4m, 2-(4-(4-Nitrophenyl)piperazin-1-yl)ethyl 5-nitrofuran-2-carboxylate] | 43.7 ± 3.18 |  |  | IC50 (mushroom tyrosinase [2]; [4]): 175.3 ± 0.24 µM |
| COc1ccc(CC(=O)OCCN2CCN(c3ccc([N+](=O)[O-])cc3)CC2)cc1 [Compound 4g, 2-(4-(4-Nitrophenyl)piperazin-1-yl)ethyl 2-(4-methoxyphenyl)acetate] | 30 ± 4.04 | > 200 | 207 to 209 |  |
| O=C(OCCN1CCN(c2ccc([N+](=O)[O-])cc2)CC1)c1cccnc1 [Compound 4k, 2-(4-(4-Nitrophenyl)piperazin-1-yl)ethyl nicotinate] | 54.3 ± 4.58 | 82.7 ± 1.16 | 168 to 170 |  |
| O=C(c1ccccc1C(F)(F)F)N1CCN(Cc2ccc(F)cc2)CC1 [E] |  |  |  | IC50 (mushroom tyrosinase [1]): 0.48 ± 0.05 µM |
| O=C(C=Cc1ccccc1)OCCN1CCN(c2ccc([N+](=O)[O-])cc2)CC1 [Compound 4j, 2-(4-(4-Nitrophenyl)piperazin-1-yl)ethyl cinnamate] | 23.1 ± 3.6 | > 200 | 185 to 187 |  |
| O=C(OCCN1CCN(c2ccc([N+](=O)[O-])cc2)CC1)c1cccc([N+](=O)[O-])c1 [Compound 4e, 2-(4-(4-Nitrophenyl)piperazin-1-yl)ethyl 3-nitrobenzoate] | 24.9 ± 2.81 |  | 181 to 183 | IC50 (mushroom tyrosinase [2]; [4]): > 200 µM |
| O=C(OCCN1CCN(c2ccc([N+](=O)[O-])cc2)CC1)c1ccc([N+](=O)[O-])cc1 [Compound 4d, 2-(4-(4-Nitrophenyl)piperazin-1-yl)ethyl 4-nitrobenzoate] | 28.3 ± 2.89 |  | 172 to 174 | IC50 (mushroom tyrosinase [2]; [4]): 203.2 ± 1.16 µM |
| O=C(OCCN1CCN(c2ccc([N+](=O)[O-])cc2)CC1)c1cc2ccccc2[nH]1 [Compound 4l, 2-(4-(4-Nitrophenyl)piperazin-1-yl)ethyl 1H-indole-2-carboxylate] | 66.6 ± 4.12 | 72.55 ± 0.49 | 192 to 194 | Inhibition mode (mushroom tyrosinase [3]; Lineweaver–Burk plot, L-dopa substrate): mixed inhibitor; also recorded: mixed-type inhibition; Vmax (mushroom tyrosinase [3]; inhibitor concentration 10 µM): 65.79 mM/min; Vmax (mushroom tyrosinase [3]; inhibitor concentration 40 µM): 64.10 mM/min; Vmax (mushroom tyrosinase [3]; inhibitor concentration 100 µM): 62.89 mM/min |
| O=C(Cc1ccccc1)OCCN1CCN(c2ccc([N+](=O)[O-])cc2)CC1 [Compound 4i, 2-(4-(4-Nitrophenyl)piperazin-1-yl)ethyl 2-phenylacetate] |  | 184.2 ± 0.88 | 178 to 180 | inhibition at 100 µM (mushroom tyrosinase [2]): 39.4 ± 4.18% |
| O=C(OCCN1CCN(c2ccc([N+](=O)[O-])cc2)CC1)c1ccccc1 [Compound 4a, 2-(4-(4-Nitrophenyl)piperazin-1-yl)ethyl benzoate] | 35.8 ± 3.24 | 174.7 ± 0.68 | 176 to 178 |  |
| COc1ccc(C=O)c(C(=O)OCCN2CCN(c3ccc([N+](=O)[O-])cc3)CC2)c1OC [Compound 4h, 2-(4-(4-Nitrophenyl)piperazin-1-yl)ethyl 6-formyl-2,3-dimethoxybenzoate] | 26.9 ± 3.55 | 200.9 ± 1.32 | 176 to 178 |  |
| O=C(OCCN1CCN(c2ccc([N+](=O)[O-])cc2)CC1)c1ccc([N+](=O)[O-])cc1Cl [Compound 4f, 2-(4-(4-Nitrophenyl)piperazin-1-yl)ethyl 2-chloro-4-nitrobenzoate] | 35.1 ± 2.25 |  | 203 to 205 | IC50 (mushroom tyrosinase [2]; [4]): > 200 µM |
| O=C(OCCN1CCN(c2ccc([N+](=O)[O-])cc2)CC1)c1ccc(Cl)cc1Cl [Compound 4c, 2-(4-(4-Nitrophenyl)piperazin-1-yl)ethyl 2,4-dichlorobenzoate] | 27.9 ± 3.09 | > 200 | 196 to 198 |  |
| O=C(OCCN1CCN(c2ccc([N+](=O)[O-])cc2)CC1)c1ccccc1Br [Compound 4b, 2-(4-(4-Nitrophenyl)piperazin-1-yl)ethyl 2-bromobenzoate] | 20.6 ± 2.58 | > 200 | 185 to 187 |  |
| COc1ccc(/C=C/C(=O)N2CCN(c3ccc(F)c(Cl)c3)CC2)cc1[N+](=O)[O-] [D] |  |  |  | IC50 (mushroom tyrosinase [1]): 0.51 µM |
| CN1CCN(C(=O)/C=C/c2ccc(O)cc2O)CC1 [C] |  |  |  | % inhibition (mushroom tyrosinase [1]; at 25 μM): 94.39%; Cellular tyrosinase activity (B16F10 cells): dose-dependently inhibited; Melanin content (B16F10 cells): dose-dependently inhibited |
